The source of these data is publication PMC12463534, “Exploring the Anticancer Properties of 4-Phenylthiazole-Based Ru(II) and Os(II) Metallacycles Featuring 1-Methylimidazole as N-Donor Functionality” (Bioinorganic Chemistry and Applications, 2025).

SMILES strings stand for the structures. Where two headings read alike, the source gives them in different places.

For data set [1], the system named is SW480 colon adenocarcinoma cells. The arrangement: method as in PMID 38426897. The note with it: MTT assay, exposure time 96 h; ref [5]; read-out: 50% inhibitory concentration SW480 (chlorido complexes, reference) (converted); cited from earlier work.
For data set [2], the system named is CH1/PA-1 ovarian teratocarcinoma cells. The arrangement: method as in PMID 38426897. Particulars: MTT assay, exposure time 96 h; ref [5]; read-out: 50% inhibitory concentration CH1 (chlorido complexes, reference) (converted); cited from earlier work.
Data set [3] relates to A549 lung adenocarcinoma cells. More on the design: method as in PMID 38426897. The note with it: MTT assay, exposure time 96 h; ref [5]; read-out: 50% inhibitory concentration A549 (chlorido complexes, reference) (converted); cited from earlier work.
Data set [4] has as its system G4 forming sequences (h-Telo, bcl2, hTERT, Kit1, Kit2) and dsDNA. More on the design: method as in PMID 38426897. The note with it: recent work; ref [5]; cited from earlier work.
For data set [5], the system named is HCT116 multicellular tumor spheroids (3D). Kind of data set: Resazurin assay, HCT116 3D multicellular tumor spheroids. The note with it: read-out: IC50 3D; HCT116 3D spheroids, resazurin assay, 96 h exposure.
Data set [6] has as its system HCT116 colorectal cancer cell line (2D). Nature of the data set: Resazurin assay, HCT116 2D (monolayer) culture. The note with it: read-out: IC50 2D, resazurin assay, 96 h exposure.
Description: Both models were investigated by the fluorimetric resazurin assay after 96-h exposure.
HCT116 colorectal carcinoma cells (RRID:CVCL_0291 from ATCC) were cultivated in McCoy's 5A medium, supplemented with 10% heat-inactivated fetal bovine serum and 4 mM L-glutamine.
For 2D experiments, HCT116 cells were harvested from culture flasks by trypsinization, seeded in 100-μL aliquots into 96-well microculture plates (CytoOne, TC-treated, from Starlab) in densities of 2 × 10^3 cells per well, and incubated for 24 h prior to exposure to the test compounds. […] Stock solutions of test compounds were prepared in DMF, which were then diluted in McCoy's 5A-supplemented medium (not to exceed a final content of 0.5% v/v of organic solvent in the test plates), and serial dilutions were added in aliquots of 100 μL per well. […] After incubation for 4 h, fluorescence was measured with a microplate reader (Bio-Tek, SynergyHT) at a wavelength of 530 nm, additionally using a reference wavelength of 620 nm.
Another data set relates to Balb/c mice. Nature of the data set: Toxicity experiments in Balb/c mice (MTD). Particulars: for Toxicity in mice: i.p. 50 mg/kg, three consecutive days, 10% DMSO in 0.9% NaCl; for MTD fold lower compared to 1c and 3c: mice. The protocol:
Finally, we were interested in the anticancer activity of selected complexes of our panel in an in vivo mouse setting. Before injecting the compounds in tumor-bearing mice, toxicity experiments were performed. […] On the last day of therapy, most animals were sacrificed and tissues as well as tumors collected. Only four mice (per group) were kept to get information on the impact of the drugs on the overall survival.

The subject of a further data set is SW480 cells. Kind of data set: DCFH-DA assay, cellular ROS levels. It is filed as cell-based, human. The note with it: 2 h, concentration dependent. The protocol:
For this approach, SW480 cells were subjected to the 2′,7′-dichlorofluorescin-diacetate (DCFH-DA) assay.
SW480 colon adenocarcinoma cells were trypsinized for 5 min in a humidified incubator at 37°C and under a 5% CO2 atmosphere. Supplemented MEM was added to stop trypsinization, and cells were centrifuged for 3 min at 1200 rpm (Heraeus Megafuge 1.0R). After cell counting, SW480 cells were seeded in 100-μL aliquots in densities of 2.5 × 10^4 cells/well into 96-well clear flat-bottom microplates (CytoOne, TC-treated, from Starlab). After incubation for 24 h, cells were washed with 200 μL of Hanks' balanced salt solution (HBSS; Sigma-Aldrich; supplemented with 1% heat-inactivated FCS). […] After washing cells with 200 μL of supplemented HBSS, serially diluted test compounds in phenol-red-free Opti-MEM (Gibco), supplemented with 1% heat-inactivated FCS, were added in 200-μl triplicates and tert-butyl hydroperoxide (TBHP) was applied as positive control. […] Blank-corrected values were calculated relative to negative controls (treated with drug-free supplemented Opti-MEM) from three independent experiments.

In the next data set the test system is SW480 cancer cells. Kind of data set: Cellular accumulation (ICP-MS) in SW480 cells. Particulars: 50 μM, 0.5% DMF in MEM, SW480, exposure time 2 h. The protocol:
(§1) As the coordinated p-cym and leaving groups are present in all synthesized complexes, we focused on the differently substituted 4-phenylthiazoles for estimated changes in lipophilicity.
Cellular accumulation of the compounds was studied based on a method described previously with modifications. 1.8 × 10^5 SW480 cells per well were seeded in aliquots of 1 mL of complete MEM (see above) into 12-well plates (CytoOne, tissue culture treated, Starlab) and incubated at 37°C for 24 h. Then, cells were exposed for 2 h at 37°C to 50 μM solutions of the test compounds (containing 0.5% DMF) in fresh 0.5 mL of complete MEM upon exchange of the medium. Afterward, cells were washed three times with 1 mL PBS per well, lysed with 0.4 mL sub-boiled HNO3 per well for 1 h at room temperature, and 0.3 mL of each sample was diluted with 7.7 mL Milli-Q water. Adsorption/desorption controls were prepared in the same manner in cell-free wells. Ruthenium content was quantified by ICP-MS using an ICP-quadrupole MS Agilent 7800 instrument (Agilent Technologies, Waldbronn, Germany) as described previously.

The subject of data set [7] is CH1/PA-1 ovarian teratocarcinoma cells. Nature of the data set: MTT assay, inhibition of cancer cell growth, CH1/PA-1. The note with it: read-out: 50% inhibitory concentration CH1, exposure time 96 h.
Description: (§2) CH1/PA-1 ovarian teratocarcinoma cells (CH1, RRID: CVCL_4992, provided by L. R. Kelland, CRC Center for Cancer Therapeutics, Institute of Cancer Research, Sutton, UK; confirmed by STR profiling as PA-1 ovarian teratocarcinoma cells at Multiplexion, Heidelberg, Germany), SW480 colon adenocarcinoma (RRID: CVCL_0546), and A549 lung adenocarcinoma cells (NCI-H2618, RRID: CVCL_A549; both cell lines were obtained from the American Type Culture Collection (ATCC), Manassas, VA, USA) were grown as adherent cultures in 75-cm^2 culture flasks (Starlab, Hamburg, Germany) by using minimal essential medium (MEM) supplemented with 1 mM sodium pyruvate, 4 mM L-glutamine, 1% (v/v) nonessential amino acids from 100-fold stock (all purchased from Sigma-Aldrich), and 10% heat-inactivated fetal bovine serum (Serana, Pessin, Germany).
(§3) The 3-(4,5-dimethylthiazol-2-yl)-2,5-diphenyl-2H tetrazolium bromide (MTT, Acros Organics, Geel, Belgium) assay was used to detect the cytotoxicity of the compounds after 96-h incubation. For this purpose, cells were harvested from culture flasks by trypsinization, seeded in 100-μL aliquots into 96-well microculture plates (Starlab, UK) in densities of 1 × 10^3 (CH1/PA-1), 2 × 10^3 (SW480), and 3 × 10^3 (A549) cells per well and incubated for 24 h prior to exposure to the test compounds. Stock solutions of test compounds were prepared in DMF, which were then diluted in MEM (not to exceed a final content of 0.5% v/v of organic solvent in the test plates), and serial dilutions were added in aliquots of 100 μL per well. […] After incubation for 4 h, the medium/MTT mixtures were removed, and the produced formazan crystals were dissolved in 150 μL DMSO per well. Optical densities at 550 nm were measured spectrophotometrically with a ELx808 Absorbance Microplate Reader (Bio-Tek, Winooski, VT, USA) by using a reference wavelength of 690 nm to correct for unspecific absorption.
Data set [8] has as its system A549 lung adenocarcinoma cells. Kind of data set: MTT assay, inhibition of cancer cell growth, A549. Particulars: read-out: 50% inhibitory concentration A549, exposure time 96 h.
Description: as §2, §3
The next data set can be described thus: Solubility in 1% DMF/PBS.
Source text: Solubility is an important factor for the application of metallodrugs. DMF was used as solubilizer to allow comparison to the respective chlorido complexes where the usage of DMSO would lead to stable DMSO adducts.
as §1

In data set [9] the test system is SW480 colon adenocarcinoma cells. Kind of data set: MTT assay, inhibition of cancer cell growth, SW480. Particulars: read-out: 50% inhibitory concentration SW480, exposure time 96 h.
Description: as §2, §3
Data set [10] relates to G4 forming sequences (h-Telo, bcl2, hTERT, Kit1, Kit2) and dsDNA. Kind of data set: FRET melting assay, G-quadruplex / B-DNA interaction. It is filed as binding, human. Particulars: 60 mM potassium cacodylate pH 7.4, 2 h incubation. The protocol: G4s are DNA secondary motifs that play crucial roles in cancer development. […] The complexes were incubated with different G4 forming sequences: one derived from human telomere-forming (h-Telo) and four corresponding to promoter regions of oncogenes, namely, bcl2, hTERT, Kit1, and Kit2. For comparison, a self-complementary sequence called dsDNA was used to represent B-DNA (Table S2).
FRET experiments were conducted using an Applied Biosystems QuantStudio 6 PCR cycler in a 96-well format equipped with a FAM (6-carboxyfluorescein) filter. Oligonucleotide stock solutions, labelled with FAM and TAMRA (6-carboxytetramethylrhodamine) probes, were diluted to the desired concentration in a 60-mM potassium cacodylate buffer (pH 7.4). To fold the oligonucleotides into their B-DNA or G4 topologies, the solutions were heated to 95°C for 5 min and then allowed to cool slowly to room temperature overnight. The final concentration of the oligonucleotides was 0.2 μM, with a total volume of 30 μL in each well. Metal complexes were dissolved in DMF to prepare 2 mM stock solutions and further diluted with the buffer, where DMF concentration never exceeded 0.05%. Mixtures of oligonucleotides and metal compounds were left at room temperature for 2 h. Data were collected twice, each time in duplicate, over a temperature range of 25°C–95°C, with a ramp of 1°C every 30 s. FAM emission data were normalized from 0 to 1 to compare different datasets. After data normalization, we extrapolated the T1/2 values, i.e., the temperature at which normalized FAM emission is 0.5. The DNA concentration is expressed in strands.

A short description of data set [11]: Stability and reactivity in aqueous solution (1H-NMR, UV-vis).
Description: The exact concentration of the metal complex stock solutions was calculated on weight-in-volume basis. Complexes were dissolved in water in 1–5 mM concentration.
The path length was 1 cm.
^1H-NMR spectroscopic studies were carried out on a Bruker FT-NMR spectrometer AV NEO 500.10 MHz and a Bruker Avance III HD Ascend 500 Plus instrument. All ^1H-NMR spectra were recorded using a standard Bruker noesygppr1d pulse sequence to suppress water resonance. […] Samples contained 10% (v/v) D2O with a complex concentration of ca. 1 mM. Samples were prepared in pH 1.3 aqueous HCl solution or in pH 7.4 PBS.

Take `Cc1ccc(-c2cscn2)[c]([Ru][Cl])c1.Cc1ccc(C(C)C)cc1` [Compound 1d]: the IC50 in data set [1] was 19 µM; in [2] it was 14 µM; in data set [3] it was 34 µM. Besides, the “Stabilization of DNA G-quadruplex structures” value in data set [4] is reported as “stabilize DNA G-quadruplex (G4) structures”.
Consider `Cc1ccc(C(C)C)cc1.[Cl][Ru][c]1ccccc1-c1cscn1` [Compound 1a], for which the IC50 in data set [1] was 9.5 µM; in data set [2] it was 3 µM; in [3], 24 µM; in data set [5], 31 ± 5 µM; in data set [6], 18 ± 5 µM. Besides, the “Stabilization of DNA G-quadruplex structures” value in data set [4] was “stabilize DNA G-quadruplex (G4) structures”. Also, the “Maximal tolerable dose (MTD) for repeated applications” value in the data set on Balb/c mice (Balb/c mice, i.p.) was 5 mg/kg. For the same molecule, the Toxicity in mice entry in the data set on Balb/c mice (Balb/c mice) is “highly toxic”. In addition, in the data set on Balb/c mice, the “MTD fold lower compared to 1c and 3c” value came to 10 fold. Moreover, the “Effect on intracellular ROS levels” value in the data set on SW480 cells is listed as “constantly decrease ROS levels with increasing concentrations”.
Consider `Cc1ccc(C(C)C)cc1.Cn1cc[n+]([Ru-]2[c]3ccccc3-c3csc[n+]32)c1.O=[N+]([O-])[O-]` [Compound 3a, [((3-κN)-1-Methylimidazole)(4-phenylthiazolato-κN,κC2′)(η^6-p-cymene)ruthenium(II)] Nitrate], for which the “Cellular accumulation, fg Ru/cell” value in the data set on SW480 cancer cells worked out at 387 ± 16 fg Ru/cell. The IC50 in data set [7] turned out to be 1.9 ± 0.1 µM; in [8], 11 ± 1 µM; in data set [9], 5.4 ± 1.1 µM; in data set [5] it was 10.6 ± 0.9 µM; in [6], 8.4 ± 0.7 µM. The same molecule had a Solubility in “Solubility in 1% DMF/PBS” of 9.08 mM. Moreover, the “Stabilization of oligonucleotides (G4s or B-DNA)” value in data set [10] is on record as “No stabilization”. Moreover, in the data set on Balb/c mice (Balb/c mice), the Toxicity in mice entry was “highly toxic”. Moreover, the “MTD fold lower compared to 1c and 3c” value in the data set on Balb/c mice was found to be 10 fold. The “Effect on intracellular ROS levels” value in the data set with SW480 cells was “constantly decrease ROS levels with increasing concentrations”. Further, the “Sensitivity to chloride: replacement of coordinated MeIm” value in [11] (3 M KCl, pH 7.4, UV-vis) is given as “could not replace coordinated MeIm”. Moreover, the “Decomposition at pH 7.4” value in data set [11] (PBS pH 7.4, 1 mM complex, 25°C, within 6 days, 1H-NMR) is recorded as “no decomposition”. The “Behaviour in acidic solution” value in data set [11] (pH = 1.0 or 1.3 (HCl), followed in time up to 6 days, 1H-NMR/UV-vis) is given as “decomposition”. Besides, the “Spectral change at pH 10.0” value in data set [11] (pH = 10.0 (NaOH), within 2 days, UV-vis) is given as “no spectral change”.
